Data set [1] in a line: Determination of the logP values by HPLC on reversed-phase column (C 18). It is filed as physicochemical. The method, then:
Determination of the logP values:
The lambda max values were determined in the maxima of the chromatographic signals using the UV spectra from 190 nm to 400 nm.

For data set [2], the system named is Boophilus microplus. The experiment in a line: Boophilus microplus - test (injection into adult ticks). The settings on record: application rate of 20 µg/animal; injected into the abdomen of adult ticks; seven days. The format is in vivo. On the procedure: Boophilus microplus - test Solvent: dimethylsulfoxide To produce a suitable preparation of active compound, 1 part by weight of active compound is mixed with the stated amount of solvent, and the concentrate is diluted with containing solvent to the desired concentration. Adult ticks (Boophilus microplus) are treated by injected with compound solution of the desired concentration into the abdomen. Ticks are transferred into replica plates and incubated in a climate chamber for seven days. Eggs which are not clearly fertile or infertile are further incubated for another 35 days until larvae hatch from the untreated controls. After the specified period of time, the laying of fertile eggs in % is determined. 100 % means that all eggs have been fertile; 0 % means that none of the eggs have been fertile.

In data set [3] the test system is Lucilia cuprina larvae. The experiment in a line: Lucilia cuprina - test (larvae). It is filed as in vivo. As to conditions: in Ovis aries, read-out: activity (mortality in %). The method, then: (§1) Solvent: dimethyl sulfoxide
(§2) To produce a suitable preparation of active compound, 10 mg of active compound are dissolved in 0.5 ml solvent, and the concentrate is diluted with water to the desired concentration.
Approximately 20 -30 (Lucilia cuprina larvae) are transferred into a test tube containing 1cm^3 of minced horse meat and 0.5 ml aqueous dilution of test compound.
After the specified period of time, mortality in % is determined. 100 % means that all the larvae have been killed; 0 % means that none of the larvae have been killed.

For data set [4], the system named is Musca domestica. The experiment in a line: Musca domestica - test. It is filed as in vivo. As to conditions: application rate of 100ppm, adults. On the procedure: as §1, §2
Prior to the assay, a piece or kitchen sponge is soaked with a mixture of sugar and compound solution and placed into a container. 10 adults (Musca domestica) are placed into the container and closed with a perforated lid.
After the specified period of time, mortality in % is determined. 100 % means that all the flies have been killed; 0 % means that none of the flies have been killed.

Setting [5] is: 0.1% aqueous phosphoric acid/acetonitrile, method [a]: 0.1% aqueous phosphoric acid and acetonitrile at pH 2.3, linear gradient from 10 to 95 % (v/v) acetonitrile, HPLC reversed-phase C 18, 40 °C.
Setting [6] is: 0.001 m aqueous nh4hco3/acetonitrile, method [c]: 0.001 molar aqueous NH4HCO3 solution and acetonitrile at pH 7.8, linear gradient from 10 % to 95 % acetonitrile (v/v), HPLC reversed-phase C 18, 40 °C.
Setting [7] is: 0.001 m aqueous nh4hco3/acetonitrile, HPLC, reversed-phase C 18, 40 °C, [c] 0.001 molar aqueous NH4HCO3 solution and acetonitrile at pH 7.8, linear gradient from 10 % to 95 % acetonitrile (v/v).
Where [8] appears, read: 0.1% aqueous phosphoric acid/acetonitrile, HPLC, reversed-phase C 18, 40 °C, [a] 0.1% aqueous phosphoric acid and acetonitrile at pH 2.3, linear gradient from 10 to 95 % (v/v) acetonitrile.

Some results are limits rather than exact numbers.

Compound `CSC[C@H](C)NC(=O)c1c(I)cccc1C(=O)Nc1ccc(C(F)(F)C(F)(F)F)c(F)c1C` [Compound 146] showed a chromatographic logP in data set [1] (setting [5]) of 4.04. Further, in data set [2], the “activity (laying of fertile eggs in %)” value is at least 80%. Moreover, the mortality at 100 ppm in data set [3] was at least 80%.

`Cc1cc(C(F)(C(F)(F)F)C(F)(F)F)ccc1NC(=O)c1cccc(Br)c1C(=O)N[C@@H](C)CS(C)(=O)=O` [Compound 129]: in data set [2], the “activity (laying of fertile eggs in %)” value is at least 80%. The mortality at 100 ppm in data set [3] was at least 80%.

Take `Cc1cc(C(C(F)(F)F)C(F)(F)F)c(F)cc1NC(=O)c1cccc(Br)c1C(=O)N[C@@H](C)C[S+](C)[O-]` (stereo partly shown) [Compound 422]: the chromatographic logP was 2.51 in data set [1] (setting [6]) and 2.58 in data set [1] (setting [5]). Further, the “activity (laying of fertile eggs in %)” value in data set [2] is recorded as at least 80%. For the same compound, the mortality at 100 ppm in data set [3] is at least 80%.

For `CSC[C@H](C)NC(=O)c1c(I)cccc1C(=O)Nc1ccc(C(C(F)(F)F)C(F)(F)F)cc1C` [Compound 24], in data set [2], the “activity (laying of fertile eggs in %)” value was at least 80%. The mortality at 100 ppm in data set [3] and in data set [4] was at least 80% throughout.

In data set [1] (setting [5]), `CCS(=O)(=O)C[C@H](C)NC(=O)c1c(I)cccc1C(=O)Nc1ccc(C(F)(C(F)(F)F)C(F)(F)F)c(F)c1C` [Compound 130] showed a chromatographic logP of 3.47. For the same compound, the mortality at 100 ppm in data set [3] and in data set [4] was at least 80% throughout.

Turning to `Cc1cc(C(C(F)(F)F)C(F)(F)F)ccc1NC(=O)c1cccc(I)c1C(=O)N[C@@H](C)C[S+](C)[O-]` (stereo partly shown) [Compound 56], the “activity (laying of fertile eggs in %)” value in data set [2] is at least 80%. Also, the mortality at 100 ppm in data set [3] and in data set [4] was at least 80% in each case.

Take `Cc1c(NC(=O)c2cccc(I)c2C(=O)N[C@@H](C)CS(C)(=O)=O)ccc(C(F)(F)C(F)(F)F)c1Cl` [Compound 186]: in data set [3], the mortality at 100 ppm was at least 80%.

With `CCS(=O)(=O)C[C@H](C)NC(=O)c1c(I)cccc1C(=O)Nc1ccc(C(F)(F)C(F)(F)F)c(Cl)c1C` [Compound 145], the mortality at 100 ppm in data set [3] was at least 80%.

In the case of `CCS(=O)(=O)C[C@H](C)NC(=O)c1c(I)cccc1C(=O)Nc1ccc(C(F)(C(F)F)C(F)(F)F)cc1F` (stereo partly shown) [Compound 307], the chromatographic logP was 2.94 in data set [1] (setting [7]) and 2.89 in data set [1] (setting [8]). Further, the mortality at 100 ppm in data set [3] and in data set [4] was at least 80% throughout.

In the case of `Cc1c(NC(=O)c2cccc(I)c2C(=O)N[C@@H](C)CS(C)(=O)=O)ccc(C(F)(F)C(F)(F)F)c1F` [Compound 162], the chromatographic logP in data set [1] (setting [5]) was 2.97. In addition, the mortality at 100 ppm in data set [3] and in data set [4] was at least 80% each time.

For `C[C@@H](CS(C)(=O)=O)NC(=O)c1c(I)cccc1C(=O)Nc1ccc(C(C(F)F)C(F)(F)F)cc1Cl` (stereo partly shown) [Compound 259], the chromatographic logP in data set [1] (setting [7]) came out at 2.72; in data set [1] (setting [8]) it was 2.69. Also, the mortality at 100 ppm in data set [3] and in data set [4] was at least 80% throughout.

Regarding `CCSC[C@H](C)NC(=O)c1c(I)cccc1C(=O)Nc1ccc(C(C(F)F)C(F)(F)F)cc1F` (stereo partly shown) [Compound 219], the chromatographic logP in data set [1] (setting [7]) and in data set [1] (setting [8]) was 3.57 throughout. Also, the “activity (laying of fertile eggs in %)” value in data set [2] is listed as at least 80%. This compound also registered a mortality at 100 ppm in data set [4] of at least 80%.

With `CCS(=O)(=O)C[C@H](C)NC(=O)c1c(I)cccc1C(=O)Nc1ccc(C(C(F)(F)F)C(F)(F)F)cc1C` [Compound 23], the mortality at 100 ppm in data set [3] and in data set [4] was at least 80% throughout.

`Cc1cc(C(C(F)(F)F)C(F)(F)F)ccc1NC(=O)c1cccc(I)c1C(=O)N[C@@H](C)CS(C)(=O)=O` [Compound 48]: in data set [2], the “activity (laying of fertile eggs in %)” value is reported as at least 80%. Also, the mortality at 100 ppm in data set [3] and in data set [4] was at least 80% each time.

As to `C[C@@H](CS(C)(=O)=O)NC(=O)c1c(I)cccc1C(=O)Nc1ccc(C(F)(C(F)F)C(F)(F)F)cc1F` (stereo partly shown) [Compound 283], the chromatographic logP came to 2.76 in data set [1] (setting [7]) and 2.72 in data set [1] (setting [8]). In addition, the mortality at 100 ppm in data set [3] and in data set [4] was at least 80% each time.

Regarding `CSC[C@H](C)NC(=O)c1c(Br)cccc1C(=O)Nc1ccc(C(F)(C(F)F)C(F)(F)F)cc1Br` (stereo partly shown) [Compound 267], the chromatographic logP in data set [1] (setting [8]) was 3.81. For the same compound, the “activity (laying of fertile eggs in %)” value in data set [2] is recorded as at least 80%. The mortality at 100 ppm in data set [3] is at least 80%.

`CSC[C@H](C)NC(=O)c1c(Br)cccc1C(=O)Nc1ccc(C(F)(F)C(F)(F)F)c(F)c1C` [Compound 388] registered a chromatographic logP in data set [1] (setting [5]) of 3.93. Besides, in data set [2], the “activity (laying of fertile eggs in %)” value was at least 80%. The mortality at 100 ppm in data set [3] was at least 80%.

Take `CCS(=O)(=O)C[C@H](C)NC(=O)c1c(Br)cccc1C(=O)Nc1ccc(C(F)(F)C(F)(F)F)c(Cl)c1C` [Compound 138]: in data set [1] (setting [5]), the chromatographic logP is 3.19. In addition, the “activity (laying of fertile eggs in %)” value in data set [2] is on record as at least 80%. For the same compound, the mortality at 100 ppm in data set [3] was at least 80%.

In data set [1] (setting [8]), `CC[S+]([O-])C[C@H](C)NC(=O)c1c(I)cccc1C(=O)Nc1ccc(C(F)(C(F)(F)F)C(F)(F)F)c(F)c1C` (stereo partly shown) [Compound 339] gave a chromatographic logP of 2.97. Also, the “activity (laying of fertile eggs in %)” value in data set [2] was at least 80%. Moreover, the mortality at 100 ppm in data set [3] was at least 80%.

In turn, `CSC[C@H](C)NC(=O)c1c(Cl)cccc1C(=O)Nc1ccc(C(F)(F)C(F)(F)F)c(F)c1C` [Compound 355] registered a chromatographic logP in data set [1] (0.1% aqueous formic acid/acetonitrile, HPLC, reversed-phase C 18, 40 °C, [b] 0.1% aqueous formic acid and acetonitrile at pH 2.7, linear gradient from 10 % to 95 % (v/v) acetonitrile) of 3.94. In addition, the “activity (laying of fertile eggs in %)” value in data set [2] was at least 80%. The mortality at 100 ppm in data set [3] is at least 80%.

With `CCSC[C@H](C)NC(=O)c1c(Cl)cccc1C(=O)Nc1ccc(C(F)(F)C(F)(F)F)c(F)c1C` [Compound 380], the chromatographic logP in data set [1] (setting [5]) stood at 4.21.

As for `CCSC[C@H](C)NC(=O)c1c(I)cccc1C(=O)Nc1ccc(C(F)(C(F)(F)F)C(F)(F)Br)cc1C` (stereo partly shown) [Compound 154], the values for the chromatographic logP in data set [1] (setting [6]) and in data set [1] (setting [5]) were 4.71 and 4.68, respectively. Moreover, in data set [2], the “activity (laying of fertile eggs in %)” value is at least 80%. Further, the mortality at 100 ppm in data set [3] was at least 80%.

As to `CSC[C@H](C)NC(=O)c1c(I)cccc1C(=O)Nc1ccc(C(F)(F)C(F)(F)F)c(Cl)c1C` [Compound 170], the chromatographic logP in data set [1] (setting [5]) was 4.2. The “activity (laying of fertile eggs in %)” value in data set [2] is at least 80%. Moreover, the mortality at 100 ppm in data set [3] was at least 80%.

For the compound `CCS(=O)(=O)C[C@H](C)NC(=O)c1c(I)cccc1C(=O)Nc1ccc(C(F)(C(F)(F)F)C(F)(F)Br)cc1C` (stereo partly shown) [Compound 194], the chromatographic logP was determined as 3.47 in data set [1] (setting [7]) and 3.49 in data set [1] (setting [8]).

As for `CCSC[C@H](C)NC(=O)c1c(I)cccc1C(=O)Nc1ccc(C(F)(C(F)(F)F)C(F)(F)F)c(F)c1C` [Compound 105], in data set [1] (setting [5]), the chromatographic logP amounted to 4.71. Besides, the “activity (laying of fertile eggs in %)” value in data set [2] is reported as at least 80%. In addition, the mortality at 100 ppm in data set [3] was at least 80%.

Take `Cc1c(NC(=O)c2cccc(Br)c2C(=O)N[C@@H](C)CS(C)(=O)=O)ccc(C(F)(F)C(F)(F)F)c1F` [Compound 389]: the chromatographic logP in data set [1] (setting [5]) came out at 2.86. Further, the “activity (laying of fertile eggs in %)” value in data set [2] is given as at least 80%. In data set [3], the mortality at 100 ppm was at least 80%.

`C[C@@H](CS(C)(=O)=O)NC(=O)c1c(I)cccc1C(=O)Nc1ccc(C(C(F)F)C(F)(F)F)cc1Br` (stereo partly shown) [Compound 275]: the chromatographic logP amounted to 2.76 in data set [1] (setting [7]) and 2.71 in data set [1] (setting [8]). In addition, the mortality at 100 ppm in data set [3] and in data set [4] was at least 80% in each case.

With `Cc1c(NC(=O)c2cccc(I)c2C(=O)N[C@@H](C)CS(C)(=O)=O)ccc(C(F)(C(F)(F)F)C(F)(F)F)c1F` [Compound 178], in data set [1] (setting [5]), the chromatographic logP is 3.27. Moreover, the mortality at 100 ppm in data set [3] and in data set [4] was at least 80% each time.

In data set [1] (setting [8]), `Cc1c(NC(=O)c2cccc(I)c2C(=O)N[C@@H](C)C[S+](C)[O-])ccc(C(F)(C(F)(F)F)C(F)(F)F)c1F` (stereo partly shown) [Compound 331] displayed a chromatographic logP of 2.78. In data set [2], the “activity (laying of fertile eggs in %)” value was at least 80%. Also, the mortality at 100 ppm in data set [3] was at least 80%.

For the compound `CCS(=O)(=O)C[C@H](C)NC(=O)c1c(Cl)cccc1C(=O)Nc1ccc(C(F)(F)C(F)(F)F)c(Cl)c1C` [Compound 347], the chromatographic logP in data set [1] (setting [8]) came to 3.14. In data set [2], the “activity (laying of fertile eggs in %)” value was at least 80%. Further, the mortality at 100 ppm in data set [3] is at least 80%.

The chromatographic logP is a lipophilicity value derived from retention on a column. Usually mortality stands for the percentage killed.

The values above are taken from patent EP2022493A1, “Composition comprising at least one optically active phthalamide derivative for controlling animal parasites” (Bayer CropScience AG, priority 2007, dated 2009).
